From US20230312584A1, “SALT OF NUCLEOSIDE ANALOG, AND CRYSTAL FORM, PHARMACEUTICAL COMPOSITION AND USE THEREOF” (priority 2020, published 2023)

Assays:
[1] = Hygroscopicity test; type: physicochemical; settings: 25° C., RH80%, 24 hours, hydrobromide
Protocol: An appropriate amount of a test product is taken and spread in a glass-stoppered weighing bottle that has been placed in an artificial climate box (temperature is 25° C.±1° C., relative humidity is 80%±2%) for 24 hours. The weighing bottle is opened, put together with the stopper in the artificial climate box (the temperature is 25° C.±1° C., the relative humidity is 80%±2%) for 24 hours, and then taken out. The moisture content of the test product before and after being placed in the artificial climate box is measured, and the hygroscopicity is measured by comparing the change in moisture content.

[2] = type: physicochemical; settings: 7 days
Protocol: The test product is placed in suitable clean containers, and then placed under conditions of high temperature (80° C.), high humidity (25° C., relative humidity 92.5%), and light (light intensity 4500±500 1× and 90 μw/cm^2), respectively, for 7 days, and samples are taken on the 7th day and tested according to the stability inspection items.

[3] = physchem; type: physicochemical; settings: 37 °C, water, thermodynamic from solid, Solubility in water
Protocol: About 10 mg of the test product is taken and put in a 1.5 mL sample tube, to which 1 mL of deionized water is added, and then the sample tube is placed in a constant temperature mixer and shaken at 37° C. for 30 minutes; after shaking, the sample tube is placed in a centrifuge to undergo centrifugation for 2 minutes. Then, 500 μL of the supernatant is taken and diluted with acetonitrile to an appropriate concentration, which is used as a test sample solution for HPLC analysis.
An appropriate amount of sample was weighed and put in a glass test tube, to which a selected solvent was gradually added. The clarification process was observed.

[4] = Toxicity test of a single intragastric administration to SD rats; type: in vivo; settings: both sexes, Sprague-Dawley (SD), rat, in vivo, po
Protocol: (§1) The safety of the hydrobromide of Compound Z in SD rats and beagle dogs was evaluated in accordance with the “Good Laboratory Practice” (2017) issued by the National Medical Products Administration (NMPA), and the acute toxicity test and 14-day long-term toxicity test were carried out, respectively.
(§2) Method: 40 SD rats were randomly divided into 4 groups, 10 rats in each group, half male and half female. The rats were given a single intragastric administration of a solvent of PEG400/Kolliphor® HS 15/ultrapure water (40/10/50, v/v/v) and the hydrobromide of Compound Z (200, 600 and 2000 mg/kg, based on the free base) dissolved in this solvent, respectively. After administration, observation was continued for 14 days, and dissection was performed on the 15th day as planned. During the test, clinical observations, body weight, feed consumption and anatomical and morphological observations by naked eyes were evaluated.

[5] = system: SD rats; experiment: as above; type: in vivo; settings: SD rats, single intragastric 200, 600 and 2000 mg/kg, 14 days observation
Protocol: as §1, §2

[6] = Toxicity test of a single intragastric administration to beagle dogs; type: in vivo; settings: both sexes, beagle, dog, in vivo, po
Protocol: as §1
(§3) Method: 8 beagle dogs were randomly divided into 4 groups, 2 dogs in each group, one male and one female. The dogs were given a single intragastric administration of a solvent of PEG400/Kolliphor® HS 15/ultrapure water (40/10/50, v/v/v) and the hydrobromide of Compound Z (50, 250 and 1000 mg/kg, based on the free base) dissolved in this solvent, respectively. After administration, observation was continued for 14 days, and dissection was performed on the 15th day as planned. Clinical observations, body weight, feed consumption, clinical pathology (blood, blood coagulation, plasma biochemistry), and morphological observation by naked eyes were evaluated.

[7] = system: beagle dogs; experiment: as above; type: in vivo; settings: beagle dogs, single intragastric 50, 250 and 1000 mg/kg
Protocol: as §1, §3

[8] = in vivo; design: species or system SD rats; settings: both sexes, Sprague-Dawley (SD), rat, po
Protocol: as §1
(§4) Method: 120 SD rats were randomly divided into 4 groups, 30 rats in each group, half male and half female. The rats were given an intragastric administration of a solvent of PEG400/Kolliphor® HS15/ultrapure water (40/10/50, v/v/v) and the hydrobromide (100, 300 and 600 mg/kg) of Compound Z dissolved in the solvent, respectively, once a day for 14 consecutive days; two-thirds of the animals in each group (20 animals in each group, half male and half female) were dissected after the end of the administration period (day 15); the remaining animals in each group (10 animals in each group, half male and half female) were dissected at the end of the 14-day recovery period (day 29). The following indexes were observed, measured and evaluated: clinical observations, body weight, feed consumption, ophthalmological examination, hematology, blood coagulation, plasma biochemistry and plasma electrolytes, urinalysis, anatomical and morphological observation by naked eyes, organ weight and histopathological examination, and the accompanying rat bone marrow micronucleus test.

[9] = system: SD rats; experiment: in vivo; settings: both, Sprague-Dawley (SD), rat, 600 mg/kg, 14 days
Protocol: as §1, §4

[10] = Toxicity test of beagle dogs by intragastric administration for 14 days and drug withdrawal for 14 days; type: in vivo; settings: both sexes, dog, in vivo, po; beagle dogs, males and females, intragastric once a day for 14 consecutive days, 14 days recovery; read-out: no-observed-adverse-effect level (NOAEL)
Protocol: as §1
(§5) Test method: 40 beagle dogs were randomly divided into 4 groups, 10 dogs in each group, half male and half female. The dogs were given an intragastric administration of a solvent of PEG400/Kolliphor® HS15/ultrapure water (40/10/50, v/v/v) and the hydrobromide (30, 100 and 250 mg/kg) of Compound Z dissolved in the solvent, respectively, once a day for 14 consecutive days; three-fifths of the animals in each group (6 animals in each group, half male and half female) were dissected after the end of the administration period (day 15); the remaining animals in each group (4 animals in each group, half male and half female) were dissected at the end of the 14-day recovery period (day 29). The following indexes were observed, measured and evaluated: clinical observations, ophthalmological examination, body weight, feed consumption, body temperature, electrocardiogram (HR, PR interval, QRS interval, T wave amplitude, QT interval and QTcV interval), clinical Pathology (hematology, blood coagulation, plasma biochemistry, urine), pathological examination (morphological observation by naked eyes, organ weight, histopathological examination).

[11] = system: beagle dogs; experiment: as above; type: in vivo
Protocol: as §1, §5

[12] = listed as Hydrobromide of Compound Z with crystal form A

## Br.[2H]c1cc([C@]2(C#N)O[C@H](COC(=O)C(C)C)[C@@H](OC(=O)C(C)C)[C@H]2OC(=O)C(C)C)n2ncnc(N)c12 [Hydrobromide of Compound Z, (2R,3R,4R,5R)-2-(4-aminopyrrolo[2,1-f][1,2,4]triazin-7-yl-5-d)-2-cyano-5-(isobutyryloxymethyl)tetrahydrofuran-3,4-diyl bis(2-methylpropanoate) hydrobromide]
[1]
  Hygroscopicity: None
  increase in moisture content: no increase
[1]; [12]
  Hygroscopicity: no hygroscopicity
  increase in moisture content: RH80%, with an increase in moisture content of <0.1%,
[1]; listed as hydrobromide of Compound Z with crystal form A
  Hygroscopicity: no hygroscopicity
[1]; listed as hydrobromide of Compound Z
  Hygroscopicity: no hygroscopicity
[2]
  Stability: Good stability under high temperature (80° C.), high
[3]
  solubility at 30 min: 410 µg/mL
[4]
  MTD at 14 days: ≥ 2000 mg/kg
[5]
  early death or euthanasia: no early death or euthanasia
[6]
  MTD at 14 days: ≥ 1000 mg/kg
[7]
  accidental death: no accidental death
[8]
  NOAEL at 14 days: 100 mg/kg
[9]
  death: two animals in the 600 mg/kg dose group died
[10]
  NOAEL at 14 days: 30 mg/kg
[11]; beagle dogs, 250 mg/kg and 100 mg/kg intragastric once a day for 14 days
  adverse drug reactions: adverse drug reactions in ophthalmological examination, clinical pathology, pathological examination, and the like could be observed
[11]; beagle dogs, 30, 100 and 250 mg/kg intragastric once a day for 14 days
  accidental death: no accidental death
[11]; beagle dogs, after 14-day recovery period
  various indexes at the end of the recovery period: returned to normal or showed a recovery trend
